What was measured:
[1] = molecular target: T1, human glucocorticoid receptor (Homo sapiens, UniProt P04150); details: cited from earlier work
T1 sequence (P04150 1-777): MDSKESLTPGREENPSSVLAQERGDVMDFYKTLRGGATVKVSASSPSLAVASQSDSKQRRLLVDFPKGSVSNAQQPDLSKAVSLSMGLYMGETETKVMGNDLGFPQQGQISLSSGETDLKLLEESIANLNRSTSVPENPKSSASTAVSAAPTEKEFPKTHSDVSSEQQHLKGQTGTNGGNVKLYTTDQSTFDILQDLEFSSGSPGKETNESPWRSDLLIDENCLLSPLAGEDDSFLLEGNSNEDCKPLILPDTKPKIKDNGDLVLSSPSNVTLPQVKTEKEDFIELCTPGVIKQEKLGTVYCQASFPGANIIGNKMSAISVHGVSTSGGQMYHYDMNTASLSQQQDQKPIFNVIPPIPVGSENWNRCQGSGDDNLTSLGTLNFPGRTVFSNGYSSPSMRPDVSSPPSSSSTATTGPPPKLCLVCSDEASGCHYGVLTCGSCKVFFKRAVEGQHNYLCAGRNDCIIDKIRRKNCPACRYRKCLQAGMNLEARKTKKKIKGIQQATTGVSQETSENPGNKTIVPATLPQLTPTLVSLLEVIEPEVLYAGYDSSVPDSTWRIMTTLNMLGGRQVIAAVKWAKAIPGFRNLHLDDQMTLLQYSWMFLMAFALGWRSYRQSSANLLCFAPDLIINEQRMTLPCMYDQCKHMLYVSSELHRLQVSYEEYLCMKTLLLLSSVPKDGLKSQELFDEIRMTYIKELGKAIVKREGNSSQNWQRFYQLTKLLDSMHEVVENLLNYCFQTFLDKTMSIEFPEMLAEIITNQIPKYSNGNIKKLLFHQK

[2] = test system: HCV RNA-replicating cell line AVA5; experiment: Primary in vitro anti-HCV screen, intracellular HCV RNA levels in AVA5 cells; assay type: cell-based
Procedure: (§1) The antiviral activity of test compounds are assayed in the stably HCV RNA-replicating cell line, AVA5, derived by transfection of the human hepatoblastoma cell line, Huh7 (Blight, et al., 2000, Sci. 290:1972). Compounds are added to dividing cultures once daily for three days (media is changed with each addition of compound). Cultures generally start the assay at 50% confluence and reach confluence during the last day of treatment. Intracellular HCV RNA levels and cytotoxicity are assessed 24 hours after the last dose of compound.
(§2) Assays are conducted using a single dose of test compound. Replicate cultures for HCV RNA levels (on 48-well plates) and triplicate cultures for cytoxicity (on 96-well plates) are used.
Intracellular HCV RNA levels are measured using standard blot hybridization (Korba & Gerin, 1992, Antivir. Res. 19:55) using triplicate cultures. HCV RNA levels in the treated cultures are expressed as a percentage of the mean levels of RNA detected in untreated cultures. Levels of β-actin RNA are used to normalize HCV RNA levels in each sample.

[3] = Cytotoxicity in the anti-HCV screen (AVA5 cultures); assay type: cell-based, human; details: human, AVA5 cells (stably HCV RNA-replicating, derived from Huh7); toxicity control, AVA5 cells, once daily for three days; read-out: approximate CC90
Procedure: as §1, §2

[4] = test system: AVA5 cells (derived from human hepatoblastoma cell line Huh7); experiment: as above; assay type: cell-based; details: 10 IU/ml
Procedure: as §1, §2

C[C@]12CCC(=O)C=C1CC[C@@H]1[C@@H]2[C@@H](O)C[C@@]2(C)[C@H]1CC[C@]2(O)C(=O)CO [cortisol, reference compound]
relative binding affinity to the human glucocorticoid receptor [1]: 23%

NC(=O)c1ncn([C@@H]2O[C@H](CO)[C@@H](O)[C@H]2O)n1 [ribavirin, reference compound]
antiviral activity at the CC90 ([2]; 100 μM): no antiviral activity
CC90 at 3 days [3]: ~100 µM

α-interferon
approximate EC90 ([2]; positive antiviral control, AVA5 cells, once daily for three days): ~10 IU/ml
cytotoxicity at the EC90 [4]: no cytotoxicity

Source: patent US20070259844A1, “Antiviral Compositions And Methods Of Using The Same” (VGX PHARMACEUTICALS, priority 2003, published 2007)
